In ChEMBL document CHEMBL5154928, “Structure-Aided Design, Synthesis, and Biological Evaluation of Potent and Selective Non-Nucleoside Inhibitors Targeting Protein Arginine Methyltransferase 5” (J Med Chem, 2022):
The source made the active and inactive calls. No cut-off for these calls is given here.

How the values were obtained:
[1] = molecular target: T1, Protein arginine N-methyltransferase 5 (Homo sapiens, UniProt O14744); test: Displacement of [3H]-SAM from PRMT5 (unknown origin) at 10 uM using peptide substrate preincubated for 15 mins followed by substrate addition for 60 mins by radioactive biochemical assay relative to control
T1 sequence (O14744 whole entry): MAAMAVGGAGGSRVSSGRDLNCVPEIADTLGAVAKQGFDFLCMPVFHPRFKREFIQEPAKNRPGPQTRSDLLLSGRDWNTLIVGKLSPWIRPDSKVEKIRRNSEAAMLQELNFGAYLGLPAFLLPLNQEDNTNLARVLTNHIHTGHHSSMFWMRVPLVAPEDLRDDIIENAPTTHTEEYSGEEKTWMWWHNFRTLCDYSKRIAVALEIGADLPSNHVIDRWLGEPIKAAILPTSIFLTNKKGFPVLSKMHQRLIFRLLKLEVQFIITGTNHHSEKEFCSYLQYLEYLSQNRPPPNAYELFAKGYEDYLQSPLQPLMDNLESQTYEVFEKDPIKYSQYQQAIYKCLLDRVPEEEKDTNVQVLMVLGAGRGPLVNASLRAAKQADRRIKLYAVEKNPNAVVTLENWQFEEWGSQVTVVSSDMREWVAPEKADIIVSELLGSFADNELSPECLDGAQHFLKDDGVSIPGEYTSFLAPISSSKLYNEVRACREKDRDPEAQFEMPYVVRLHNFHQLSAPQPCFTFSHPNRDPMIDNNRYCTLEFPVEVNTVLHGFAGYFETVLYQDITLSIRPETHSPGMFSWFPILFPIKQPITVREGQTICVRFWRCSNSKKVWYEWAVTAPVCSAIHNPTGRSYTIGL

[2] = molecular target: T1, Protein arginine N-methyltransferase 5; test: Displacement of [3H]-SAM from PRMT5 (unknown origin) using peptide substrate preincubated for 15 mins followed by substrate addition for 60 mins by radioactive biochemical assay
[3] = system: A-375; test: Antiproliferation activity against human A-375 cells assessed as cell growth inhibition incubated for 5 days by CCK-8 assay; conditions: A-375, 120 h
[4] = Metabolic stability in human liver microsomes assessed as half life incubated for 10 mins measured up to 60 mins in presence of NADPH by LC-MS/MS analysis; type: ADME, Microsome
[5] = molecular target: T1, Protein arginine N-methyltransferase 5; test: Inhibition of PRMT5 in human A-375 cells assessed as decrease in […] levels measured after 48 hrs by Western blot analysis; type: cell-based; conditions: dose 0.5-8 µM, DDE = dose-dependent effect
[6] = AUC (0 to infinity) in mouse at 3 mg/kg, iv measured for 0.25 to 24 hrs by LC-MS/MS analysis; type: ADME, organism-based; design: time upper 24 hrs, time lower 0.25 hrs, dose 3 mg/kg, route iv; conditions: in vivo
[7] = Clearance in mouse at 3 mg/kg, iv measured for 0.25 to 24 hrs by LC-MS/MS analysis; type: ADME, organism-based; conditions: in vivo, time 0.25-24 hrs
[8] = Half life in Sprague-Dawley rat at 10 mg/kg, po measured for 0.25 to 24 hrs by LC-MS/MS analysis; type: ADME, organism-based; conditions: in vivo, time 0.25-24 hrs
[9] = Half life in mouse at 3 mg/kg, iv measured for 0.25 to 24 hrs by LC-MS/MS analysis; type: ADME, organism-based; conditions: in vivo, time 0.25-24 hrs
[10] = Cmax in Sprague-Dawley rat at 10 mg/kg, po measured for 0.25 to 24 hrs by LC-MS/MS analysis; type: ADME, organism-based; design: time lower 0.25 hrs, dose 10 mg/kg, time upper 24 hrs, route po; conditions: in vivo
[11] = Cmax in mouse at 10 mg/kg, po measured for 0.25 to 24 hrs by LC-MS/MS analysis; type: ADME, organism-based; design: time lower 0.25 hrs, dose 10 mg/kg, time upper 24 hrs, route po; conditions: in vivo
[12] = AUC (0 to infinity) in Sprague-Dawley rat at 10 mg/kg, po measured for 0.25 to 24 hrs by LC-MS/MS analysis; type: ADME, organism-based; design: dose 10 mg/kg, time upper 24 hrs, time lower 0.25 hrs, route po; conditions: in vivo
[13] = Volume of distribution at steady state in mouse at 3 mg/kg, iv measured for 0.25 to 24 hrs by LC-MS/MS analysis; type: ADME, organism-based; conditions: in vivo, time 0.25-24 hrs, read-out: Vdss
[14] = Oral bioavailability in Sprague-Dawley rat at 10 mg/kg, measured for 0.25 to 24 hrs by LC-MS/MS analysis; type: ADME, organism-based; conditions: in vivo, time 0.25-24 hrs
[15] = Oral bioavailability in mouse at 10 mg/kg, measured for 0.25 to 24 hrs by LC-MS/MS analysis; type: ADME, organism-based; conditions: in vivo, time 0.25-24 hrs
[16] = molecular target: T1, Protein arginine N-methyltransferase 5; test: Competitive inhibition of PRMT5 (unknown origin) at 0.001 to 100000 nM using histone H4 (1 to 21 residues) as substrate incubated for 120 mins in presence of different concentrations of SAM by AlphaLISA assay; conditions: dose 0.001-100000 nM
[17] = molecular target: T1, Protein arginine N-methyltransferase 5; test: Competitive inhibition of PRMT5 (unknown origin) in presence of MTA
[18] = system: CHL-1; test: Antiproliferation activity against human CHL-1 cells assessed as cell growth inhibition incubated for 5 days by CCK-8 assay; type: functional, cell-based; conditions: dose <= 10.0 µM, time 5.0 day, DDE = dose-dependent effect
[19] = system: SNU-423; test: Antiproliferation activity against human SNU-423 cells assessed as cell growth inhibition incubated for 5 days by CCK-8 assay; type: functional, cell-based; conditions: dose <= 10.0 µM, time 5.0 day, DDE = dose-dependent effect
[20] = system: SNU-449; test: Antiproliferation activity against human SNU-449 cells assessed as cell growth inhibition incubated for 5 days by CCK-8 assay; type: functional, cell-based; conditions: dose <= 10.0 µM, time 5.0 day, DDE = dose-dependent effect
[21] = system: MDA-MB-231; test: Antiproliferation activity against human MDA-MB-231 cells assessed as cell growth inhibition incubated for 5 days by CCK-8 assay; type: functional, cell-based; conditions: dose <= 10.0 µM, time 5.0 day, DDE = dose-dependent effect
[22] = system: MDA-MB-453; test: Antiproliferation activity against human MDA-MB-453 cells assessed as cell growth inhibition incubated for 5 days by CCK-8 assay; type: functional, cell-based; conditions: dose <= 10.0 µM, time 5.0 day, DDE = dose-dependent effect
[23] = system: MV4-11; test: Antiproliferation activity against human MV4-11 cells assessed as cell growth inhibition incubated for 5 days by CCK-8 assay; type: functional, cell-based; conditions: dose <= 10.0 µM, time 5.0 day, DDE = dose-dependent effect
[24] = system: MOLM-13; test: Antiproliferation activity against human MOLM-13 cells assessed as cell growth inhibition incubated for 5 days by CCK-8 assay; type: functional, cell-based; conditions: dose <= 10.0 µM, time 5.0 day, DDE = dose-dependent effect
[25] = system: Mus musculus; test: In vivo inhibition of PRMT5 in human A-375 cells xenografted in BALB/c mouse assessed as reduction in sDMA levels in tumor tissue at 75 mg/kg, po qd for 19 days measured after 3 weeks by Western blot analysis; type: functional, organism-based; conditions: time 19.0 day
[26] = system: Mus musculus; test: In vivo inhibition of PRMT5 in human A-375 cells xenografted in BALB/c mouse assessed as reduction in H3R8me2s levels in tumor tissue at 75 mg/kg, po qd for 19 days measured after 3 weeks by Western blot analysis; type: functional, organism-based; conditions: time 19.0 day
[27] = system: Mus musculus; test: In vivo inhibition of PRMT5 in human A-375 cells xenografted in BALB/c mouse assessed as reduction in H4R3me2s levels in tumor tissue at 75 mg/kg, po qd for 19 days measured after 3 weeks by Western blot analysis; type: functional, organism-based; conditions: time 19.0 day
[28] = system: A-375; test: Induction of apoptosis in human A-375 cells incubated for 48 hrs by Annexin-V FITC/PI staining based flow cytometry analysis; type: functional, cell-based; conditions: dose 0.5-4 µM, DDE = dose-dependent effect

| Structure (SMILES) | IC50 [2] [nM] | IC50 [3] [µM] | other results |
| --- | --- | --- | --- |
| Nc1ncnc2c1ncn2Cc1ccccc1 | – | – | inhibition [1]: 15.6% |
| C[C@H](Oc1ccc(-c2cc3c(C4=CCNCC4)ncnc3[nH]2)cc1F)c1ccccc1 | 23.9 | 3.5 | half-life [4]: 56.2 min |
| COc1cc(O[C@@H](C)c2ccccc2)ccc1-c1cc2c(C3=CCNCC3)ncnc2[nH]1 | 193 | 7.92 | – |
| C1=C(c2ncnc3[nH]c(-c4ccc(OCc5ccccc5)cc4)nc23)CCNC1 | 14.2 | – | half-life [4]: 2.09 min |
| CC(Oc1ccc(-c2nc3c(C4=CCNCC4)ncnc3[nH]2)cc1)c1ccccc1 (racemic) | 37.1 | 7.17 | – |
| C[C@H](Oc1ccc(-c2cc3c(C4=CCNCC4)ncnc3[nH]2)c(F)c1)c1ccccc1 | 22.1 | 1.75 | half-life [4]: 42.3 min |
| CC(Oc1ccc(-c2cc3c(C4=CCNCC4)ncnc3[nH]2)c(F)c1)c1ccccc1 (racemic) | 30.4 | 4.62 | – |
| Nc1ncnc2c1ccn2Cc1ccccc1 | – | – | inhibition [1]: 18.1% |
| O=C(NC[C@H](O)CN1CCc2ccccc2C1)c1cc(NC2COC2)ncn1 | – | – | inhibition [5]: Dde |
| C[C@H](Oc1ccc(-c2cc3c(C4=CCNCC4)ncnc3[nH]2)cc1)c1ccccc1.Cl | – | – | AUC [6]: 464 h/ng/mL; clearance [7]: 153 mL/min/kg; half-life [8]: 177 min; half-life [9]: 283 min; Cmax [10]: 27.7 ng/mL; Cmax [11]: 128 ng/mL; AUC [12]: 205 h/ng/mL; Vd [13]: 47.7 L/kg; bioavailability [14]: 23.7%; bioavailability [15]: 46.2% |
| CC(Oc1ccc(-c2nc3c(C4=CCNCC4)ncnc3[nH]2)c(F)c1)c1ccccc1 (racemic) | 234 | 7.5 | – |
| Nc1ncnc2c1ccn2Cc1cccc(Oc2ccccc2)c1 | – | – | inhibition [1]: 15.5% |
| C[C@@H](Oc1ccc(-c2nc3c(C4=CCNCC4)ncnc3[nH]2)cc1)c1ccccc1 | 114 | 7.58 | – |
| C[C@@H](Oc1ccc(-c2cc3c(C4=CCNCC4)ncnc3[nH]2)cc1)c1ccccc1 | 47.7 | 2.57 | half-life [4]: 18.3 min |
| C[C@@H](Oc1ccc(-c2cc3c(C4=CCNCC4)ncnc3[nH]2)c(F)c1)c1ccccc1 | 103 | 6.49 | – |
| C[C@H](Oc1ccc(-c2cc3c(C4=CCNCC4)ncnc3[nH]2)cc1)c1ccccc1 | – | – | Activity [16]: Active; Activity [17]: Active; Activity [18]: Dde; Activity [19]: Dde; Activity [20]: Dde; Activity [21]: Dde; Activity [22]: Dde; Activity [23]: Dde; Activity [24]: Dde; inhibition [5]: Dde; Activity [25]: Active; Activity [26]: Active; Activity [27]: Active; Activity [28]: Dde |
| C[C@H](Oc1ccc(-c2nc3c(C4=CCNCC4)ncnc3[nH]2)c(F)c1)c1ccccc1 | 79.6 | 5.42 | half-life [4]: 41.3 min |
| C1=C(c2ncnc3[nH]c(-c4ccc(OCc5ccccc5)cc4)cc23)CCNC1 | 8 | – | half-life [4]: 2.99 min |
| Nc1ncnc2c1ncn2-c1ccc(OCc2ccccc2)cc1 | – | – | inhibition [1]: 20.2% |
| Cc1cc(O[C@@H](C)c2ccccc2)ccc1-c1cc2c(C3=CCNCC3)ncnc2[nH]1 | 32.8 | 3.39 | half-life [4]: 47.3 min |
| Cc1cc(-c2cc3c(C4=CCNCC4)ncnc3[nH]2)ccc1O[C@@H](C)c1ccccc1 | 80.9 | 8.26 | half-life [4]: 56.8 min |
| CC(Oc1ccc(-c2cc3c(C4=CCNCC4)ncnc3[nH]2)cc1)c1ccccc1 (racemic) | 43.5 | 2.48 | half-life [4]: 26 min |
| Nc1ncnc2c1ccn2-c1ccc(OCc2ccccc2)cc1 | – | – | inhibition [1]: 10.5% |
| Nc1ncnc2c1ccn2Cc1ccc(Oc2ccccc2)cc1 | – | – | inhibition [1]: 14.1% |
| C[C@H](Oc1ccc(-c2nc3c(C4=CCNCC4)ncnc3[nH]2)cc1)c1ccccc1 | 34.5 | 5.96 | half-life [4]: 70.1 min |
| C[C@@H](Oc1ccc(-c2nc3c(C4=CCNCC4)ncnc3[nH]2)c(F)c1)c1ccccc1 | 157 | 8.69 | – |

Further lines, with some results ahead:

| IC50 [2] [nM] | Structure (SMILES) | IC50 [3] [µM] | other results |
| --- | --- | --- | --- |
| 51 | c1ccc(COc2ccc(-c3cc4c(N5CCC6(CC5)COC6)ncnc4[nH]3)cc2)cc1 | – | – |
| 119 | Cn1cc(-c2ncnc3[nH]c(-c4ccc(OCc5ccccc5)cc4)cc23)cn1 | – | – |
| 27.5 | CN1CCN(c2ncnc3[nH]c(-c4ccc(OCc5ccccc5)cc4)cc23)CC1 | – | – |
| 22.3 | c1ccc(COc2ccc(-c3cc4c(NC5CCNCC5)ncnc4[nH]3)cc2)cc1 | – | – |
| 55 | c1ccc(COc2ccc(-c3cc4c(N5CCOCC5)ncnc4[nH]3)cc2)cc1 | – | – |
| 50.8 | O=C1CN(c2ncnc3[nH]c(-c4ccc(OCc5ccccc5)cc4)cc23)CCN1 | – | – |
| 21.7 | C[C@@H]1CN(c2ncnc3[nH]c(-c4ccc(OCc5ccccc5)cc4)cc23)C[C@H](C)N1 | – | – |
| 11.4 | c1ccc(COc2ccc(-c3cc4c(N5CCNCC5)ncnc4[nH]3)cc2)cc1 | – | – |
| 17.3 | CN(C)CCN(C)c1ncnc2[nH]c(-c3ccc(OCc4ccccc4)cc3)cc12 | – | – |
| 10.4 | c1ccc(COc2ccc(-c3cc4c(N5CCCNCC5)ncnc4[nH]3)cc2)cc1 | – | – |
| 44.7 | c1ccc(COc2ccc(-c3nc4c(N5CCOCC5)ncnc4[nH]3)cc2)cc1 | – | – |
| 88.8 | CC1(O)CCN(c2ncnc3[nH]c(-c4ccc(OCc5ccccc5)cc4)cc23)CC1 | – | – |
| 40 | c1ccc(COc2ccc(-c3cc4c(N5CCN(C6COC6)CC5)ncnc4[nH]3)cc2)cc1 | – | – |
| 71.3 | CCN1CCN(c2ncnc3[nH]c(-c4ccc(OCc5ccccc5)cc4)cc23)CC1 | – | – |
| 83.9 | Nc1ncnc2[nH]c(-c3ccc(OCc4ccccc4)cc3)cc12 | – | inhibition [1]: 81.9% |
| 59.4 | Nc1ncnc2[nH]c(-c3ccc(OCc4ccccc4)cc3)nc12 | – | inhibition [1]: 84.4% |
| 11.5 | c1ccc(COc2ccc(-c3nc4c(N5CCNCC5)ncnc4[nH]3)cc2)cc1 | – | – |
| 16.7 | CN1CCCN(c2ncnc3[nH]c(-c4ccc(OCc5ccccc5)cc4)cc23)CC1 | – | – |
| 113 | c1ccc(COc2ccc(-c3cc4c(-c5cn[nH]c5)ncnc4[nH]3)cc2)cc1 | – | – |
